Test results taken from patent US10137103B2, “Compositions and methods for the treatment of fatty acid metabolism disorders” (The Children's Hospital of Philadelphia, priority 2015, dated 2018).
Where a chain is given by its changes, count along the chain named.

Legend:
ob/ob mice = assay: Liver and serum triglycerides and liver histology in ob/ob mice; type: in vivo, mouse
Text: Formalin-fixed liver sections were stained with Trichrome Stain Kit (Sigma) according to the manufacturer's instructions. Triglycerides were extracted from liver according to the Folch method (Folch et al. (1957) J. Biol. Chem., 226:497-509). Serum and liver triglyceride concentrations were quantified with a triglyceride quantification kit following the manufacturer's instructions (Abcam). Leptin-deficient mice develop liver steatosis spontaneously under normal chow diet starting at 4 to 5 weeks of life that is characterized by a diminished rate of palmitate oxidation and accumulation of fat droplets in the form of triglycerides within the hepatocytes (Brix et al. (2002) Mol. Genet. Metab., 75:219-226; de Oliveira et al. (2008) J. Am. Coll. Nutr., 27:299-305). […] This significant reduction in the rate of palmitoyl-CoA oxidation indicated a deficiency in mitochondrial β-oxidation of fatty acids. […] GSNO was used to deliver nitric oxide equivalents because of the extensive use of this pharmacological agent in cellular models to modify proteins by S-nitrosylation despite limited cellular permeability (Hara et al. (2005) Nat. Cell Biol., 7:665-674; Chung et al. (2004) Science 304:1328-1331). […] Moreover, the restoration of palmitoyl-CoA oxidation in GSNO-injected ob/ob mice was associated with a significant reduction of the concentration of liver triglycerides.

VLCAD [1] = molecular target: T1, VLCAD (Mus musculus, UniProt P50544); assay: Fraction of S-nitrosylated VLCAD in liver of ob/ob mice (organomercury resin capture); type: in vivo; details: treated ob/ob mice
T1 sequence (P50544 42-656): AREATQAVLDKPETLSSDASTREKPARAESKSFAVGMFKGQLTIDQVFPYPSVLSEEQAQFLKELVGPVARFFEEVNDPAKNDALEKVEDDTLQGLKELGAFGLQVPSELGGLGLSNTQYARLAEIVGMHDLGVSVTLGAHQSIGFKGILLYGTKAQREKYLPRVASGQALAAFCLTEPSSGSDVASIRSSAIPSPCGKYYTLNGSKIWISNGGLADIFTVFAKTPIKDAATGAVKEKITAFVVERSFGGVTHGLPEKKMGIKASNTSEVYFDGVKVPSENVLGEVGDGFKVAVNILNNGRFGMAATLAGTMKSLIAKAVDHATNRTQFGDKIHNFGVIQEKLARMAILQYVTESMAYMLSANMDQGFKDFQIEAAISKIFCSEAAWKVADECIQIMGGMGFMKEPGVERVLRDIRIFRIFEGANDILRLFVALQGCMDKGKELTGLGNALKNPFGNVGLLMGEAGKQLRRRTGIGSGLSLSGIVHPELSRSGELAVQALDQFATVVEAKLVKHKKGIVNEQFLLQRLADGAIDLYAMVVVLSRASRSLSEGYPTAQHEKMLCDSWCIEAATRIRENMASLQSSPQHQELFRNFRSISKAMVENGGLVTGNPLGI
Text: These findings confirm the MS/MS analysis showing S-nitrosylation of VLCAD in wild-type and GSNO-treated mouse liver but not in PBS-treated ob/ob mouse liver (FIG. 3C). […] This substantial increase in catalytic efficiency can provide efficient removal of fatty acids in ob/ob mouse liver.

wild-type VLCAD = molecular target: T2, wild-type VLCAD (Mus musculus, UniProt P50544); assay: Hepa 1 to 6 cells expressing FLAG-tagged wild-type VLCAD; type: cell-based; details: 250 mM GSNO for 30 minutes
T2 construct: 3xFLAG (C); host or cells: Hepa 1 to 6 cells (mouse hepatocytes)
T2 sequence (P50544 42-656): T1 sequence (P50544 42-656)
Protocol: Hepa 1 to 6 cells were grown in Dulbecco's modified Eagle's medium (DMEM) containing 10% fetal bovine serum, 2 mM glutamine, penicillin (100 U/ml), and streptomycin ([…]) at 37° C. in air with 5% CO2. Cells were plated at a density of 5×10^4 cells/cm^2 and cultured under normal conditions for 24 hours. Cells were transfected with FLAG®-tagged wild-type VLCAD or FLAG®-tagged C238A VLCAD with Lipofectamine® 2000 reagent (Life Technologies) according to the protocol provided by the manufacturer. Forty-eight hours after transfection, the growth medium was replaced with serum-free DMEM, and […] freshly prepared GSNO was added for 30 minutes, after which the cells were extensively washed with PBS. Cell lysates were obtained immediately or 60, 120, and 240 minutes after the removal of GSNO. The samples were protected from UV light exposure. Lysates were assayed for protein concentration, and equal amounts of protein per sample were used for organic mercury-assisted capture.
Additional evidence for the functional consequences of S-nitrosylation of VLCAD was obtained in mouse hepatocytes transiently expressing wild-type VLCAD or a point mutant that could not be S-nitrosylated (C238A). […] Upon removal of GSNO from the media and extensive washing, both the abundance of S-nitrosylated VLCAD and the enzymatic-specific activity declined over time (FIGS. 4A and 4B).

C238A VLCAD mutant = molecular target: T3, C238A VLCAD mutant (Mus musculus, UniProt P50544, C238A); assay: Hepa 1 to 6 cells expressing FLAG-tagged C238A VLCAD; type: cell-based; details: same experimental conditions
T3 construct: 3xFLAG (C); mutant made in house by QuikChange) Ex-Mm01013-M14; host or cells: Hepa 1 to 6 cells (mouse hepatocytes)
T3 sequence (P50544 42-656 C238A): T1 sequence (P50544 42-656) with C197A
Text: The QuikChange® Lightning Site-Directed Mutagenesis Kit (Agilent Technologies) was used to introduce single amino acid mutations in complementary DNA encoding VLCAD. A cysteine-to-alanine mutant at amino acid position 238 was generated with Ex-Mm01013-M14 (hereinafter referred to as pVLCAD-3×FLAG®), a plasmid encoding mouse VLCAD fused to three FLAG® tags in the C-terminal region of the protein (GeneCopoeia), as a template. The forward primer 5′-[…]-3′ (SEQ ID NO: 1) and the reverse primer 5′-[…] […]-3′ (SEQ ID NO: 2) were used to substitute an alanine codon for a cysteine codon in pVLCAD-3×FLAG®, thereby generating pVLCAD-C238A-3×FLAG®. The sequence of both pVLCAD-3×FLAG® and pVLCAD-C238A-3×FLAG® was verified before use in subsequent experiments.
Hepa 1 to 6 cells were grown in Dulbecco's modified Eagle's medium (DMEM) containing 10% fetal bovine serum, 2 mM glutamine, penicillin (100 U/ml), and streptomycin ([…]) at 37° C. in air with 5% CO2. Cells were plated at a density of 5×10^4 cells/cm^2 and cultured under normal conditions for 24 hours. Cells were transfected with FLAG®-tagged wild-type VLCAD or FLAG®-tagged C238A VLCAD with Lipofectamine® 2000 reagent (Life Technologies) according to the protocol provided by the manufacturer. […]

VLCAD [2] = molecular target: T1, VLCAD; details: liver homogenates
VLCAD [3] = molecular target: T1, VLCAD

N[C@@H](CCC(=O)N[C@@H](CSN=O)C(=O)NCC(=O)O)C(=O)O [GSNO, S-nitrosoglutathione]
fat deposits in liver slices (histology) (ob/ob mice; vs PBS-injected): fewer fat deposits
liver triglyceride concentration (ob/ob mice; vs PBS-injected): significantly lowered
serum triglyceride concentrations (ob/ob mice; vs wild-type and PBS-treated): similar
fraction of VLCAD molecules in liver S-nitrosylated (VLCAD [1]): 25±3%
S-nitrosylated fraction of wild-type VLCAD (wild-type VLCAD): 27±3%
VLCAD-specific activity (wild-type VLCAD): fivefold increase
S-nitrosylation of C238A VLCAD (C238A VLCAD mutant): not S-nitrosylated
basal activity of C238A VLCAD (C238A VLCAD mutant): did not change
apparent KM of PBS-injected ob/ob mice relative to GSNO-injected ob/ob mice (VLCAD [2]): more than fivefold higher
Vmax of VLCAD (VLCAD [2]; vs wild-type and PBS-injected ob/ob mice): similar
S-nitrosylation of VLCAD (VLCAD [3]; eNOS-/- liver homogenates treated ex vivo): readily modified ex vivo at cysteine residue Cys238
KM for VLCAD enzymatic activity vs untreated homogenate (VLCAD [3]; eNOS-/- liver homogenates treated ex vivo (5 μM, 30 minutes)): increased five-fold
